This passage reports activity change, negative = viability loss results from PubChem BioAssay AID624374 (Broad Institute, 2012).

Inconclusive results are not listed. The source made the active and inactive calls. No rule for the calls is given here.

The first test can be described thus: HEK293 cell viability, dose response, counter-screen for EBV LMP1 inhibitor project, dry powder, set 2 (AID 624374). The conditions noted are these: HEK293 viability counterscreen, plate reader; at 30 µM (top of the series).
For `Cc1noc(C)c1S(=O)(=O)Nc1ccc2c(c1)C(=O)N([C@@H](C)CO)C[C@H](C)[C@H](CN(C)Cc1ccc(C(F)(F)F)cc1)OCCCC[C@@H](C)O2`, the activity change, negative = viability loss is 11.8% (inactive).
As to `CN(C)C(=O)c1cccc(-c2cccc(-c3nc(C(=O)NCc4ccccc4)cc4c3[C@@H](CCO)N([S@](=O)C(C)(C)C)C4)c2)c1`, the activity change, negative = viability loss was -12.3% (inactive).
For the compound `C[C@H](NC(=O)C[C@@H]1C=C[C@H](NC(=O)Cc2ccccn2)[C@H](CO)O1)c1ccccc1`, the activity change, negative = viability loss was 3.96% (inactive).

Staying with this test, now noted: HEK293 viability counterscreen, plate reader; at 35 µM (top of the series).
Regarding `Cc1noc(C)c1S(=O)(=O)Nc1ccc2c(c1)C(=O)N([C@H](C)CO)C[C@@H](C)[C@@H](CN(C)Cc1ccc(C(F)(F)F)cc1)OCCCC[C@H](C)O2`, the activity change, negative = viability loss was -1.22% (inactive).
As to `O=C(C[C@H]1C[C@@H]2c3cc(NS(=O)(=O)c4ccc(F)cc4)ccc3O[C@@H]2[C@H](CO)O1)NC1CCCCC1`, the activity change, negative = viability loss was 2.73% (inactive).
With `C[C@@H](NC(=O)C[C@@H]1C=C[C@@H](NC(=O)Cc2ccccn2)[C@H](CO)O1)c1ccccc1`, the activity change, negative = viability loss was 5.06% (inactive).
On the same count and under the same terms, as for `Cc1noc(C)c1S(=O)(=O)Nc1ccc2c(c1)C(=O)N([C@H](C)CO)C[C@@H](C)[C@@H](CN(C)Cc1ccc(C(F)(F)F)cc1)OCCCC[C@@H](C)O2`, the figure is -10.4% (inactive); as for `C[C@H]1CN([C@@H](C)CO)C(=O)c2c(c3ccccc3n2C)-c2ccccc2CO[C@@H]1CN(C)C(=O)Nc1ccc(F)cc1`, 2.63% (inactive); as for `C[C@@H](NC(=O)C[C@@H]1C=C[C@H](NC(=O)Cc2ccccn2)[C@@H](CO)O1)c1ccccc1`, -2.91% (inactive).
`CC(C)NC(=O)N1Cc2cc(C(=O)NC3Cc4ccccc4C3)nc(-c3cccc(-c4cccnc4)c3)c2[C@@H]1CCO`: the activity change, negative = viability loss was 22.6% (inactive).
With `COc1ccc(-c2cccc(-c3nc(C(=O)NCC(F)(F)F)cc4c3[C@H](CCO)N([S@@](=O)C(C)(C)C)C4)c2)cc1`, the activity change, negative = viability loss is -10.9% (inactive).
The same measure, in the same setting: the result for `C/C=C/c1cccc(-c2nc(C(=O)Nc3nccs3)cc3c2[C@@H](CCO)N(C(=O)NC(C)C)C3)c1` reads 4.5% (inactive); that for `COc1ccc(S(=O)(=O)N(C)C[C@H]2Oc3ncc(/C=C/c4ccccc4)cc3C(=O)N([C@H](C)CO)C[C@@H]2C)cc1`, 13.6% (inactive).
With `Cc1noc(C)c1S(=O)(=O)Nc1ccc2c(c1)C(=O)N([C@@H](C)CO)C[C@H](C)[C@@H](CN(C)Cc1ccc(C(F)(F)F)cc1)OCCCC[C@H](C)O2`, the activity change, negative = viability loss is 4.59% (inactive).
Take `O=C(C[C@@H]1C[C@@H]2c3cc(NC(=O)c4cccnc4)ccc3O[C@@H]2[C@H](CO)O1)NCC(F)(F)F`: the activity change, negative = viability loss is -0.478% (inactive).
On the same count and under the same terms, as for `C[C@@H]1CN([C@H](C)CO)C(=O)Cc2cc(NC(=O)Cc3ccccc3)ccc2O[C@@H]1CN(C)Cc1ccc(C(F)(F)F)cc1`, the figure is 0.279% (inactive).
In the case of `N#C[C@H]1[C@H](c2ccc(C#Cc3ccccc3F)cc2)[C@@H](CO)N1C(=O)c1cccnc1`, the activity change, negative = viability loss was 4.46% (inactive).
For the compound `COc1ccccc1C#Cc1ccc2c(c1)O[C@H](CN(C)Cc1cccnc1)[C@H](C)CN([C@@H](C)CO)S2(=O)=O`, the activity change, negative = viability loss was -0.213% (inactive).
For `O=C(C[C@H]1C[C@H]2c3cc(NC(=O)c4ccc5c(c4)OCO5)ccc3O[C@H]2[C@H](CO)O1)NCc1ccc(Oc2ccccc2)cc1`, the activity change, negative = viability loss was -11.7% (inactive).
`O=C(Nc1ccc(C(F)(F)F)cc1)Nc1ccc2c(c1)[C@@H]1C[C@H](CC(=O)N3CCc4ccccc4C3)O[C@H](CO)[C@@H]1O2`: the activity change, negative = viability loss is -11.3% (inactive).
Consider `C[C@@H](NC(=O)C[C@H]1C=C[C@@H](NC(=O)Cc2ccccn2)[C@@H](CO)O1)c1ccccc1`, for which the activity change, negative = viability loss is 2.73% (inactive).
Take `Cc1noc(C)c1S(=O)(=O)Nc1ccc2c(c1)C(=O)N([C@@H](C)CO)C[C@@H](C)[C@H](CN(C)Cc1ccc(C(F)(F)F)cc1)OCCCC[C@@H](C)O2`: the activity change, negative = viability loss is -0.939% (inactive).
Same read-out and setting: as for `O=C(C[C@@H]1C[C@@H]2c3cc(NS(=O)(=O)c4ccc(F)cc4)ccc3O[C@@H]2[C@H](CO)O1)NC1CCCCC1`, the figure is 6.32% (inactive); as for `C[C@@H]1CN([C@H](C)CO)C(=O)c2c(c3ccccc3n2C)-c2ccccc2CO[C@@H]1CN(C)C(=O)Nc1ccc(F)cc1`, 6.88% (inactive).
On the same count and under the same terms, as for `C[C@H](NC(=O)C[C@H]1C[C@@H]2c3cc(NC(=O)c4cccnc4)ccc3O[C@@H]2[C@@H](CO)O1)c1ccccc1`, the figure is -6.5% (inactive).
For the compound `N#C[C@H]1N[C@H](CO)[C@H]1c1ccc(C#Cc2ccccc2F)cc1`, the activity change, negative = viability loss is -10.8% (inactive).
For the compound `COc1ccccc1C#Cc1cnc2c(c1)C(=O)N([C@@H](C)CO)C[C@H](C)[C@@H](CN(C)C(=O)c1ccc3c(c1)OCO3)O2`, the activity change, negative = viability loss is 9.4% (inactive).
Consider `Cc1noc(C)c1S(=O)(=O)Nc1ccc2c(c1)C(=O)N([C@@H](C)CO)C[C@@H](C)[C@@H](CN(C)Cc1ccc(C(F)(F)F)cc1)OCCCC[C@@H](C)O2`, for which the activity change, negative = viability loss is -11.2% (inactive).
With `Cc1noc(C)c1S(=O)(=O)Nc1ccc2c(c1)C(=O)N([C@H](C)CO)C[C@@H](C)[C@H](CN(C)Cc1ccc(C(F)(F)F)cc1)OCCCC[C@H](C)O2`, the activity change, negative = viability loss is -6.47% (inactive).
Take `C[C@H]1CN([C@@H](C)CO)C(=O)c2cc(C#Cc3ccccc3F)cnc2O[C@@H]1CN(C)C(=O)C1CCCCC1`: the activity change, negative = viability loss is 7.95% (inactive).
Take `C[C@H]1CN([C@@H](C)CO)C(=O)Cc2cc(NC(=O)Cc3ccccc3)ccc2O[C@@H]1CN(C)Cc1ccc(C(F)(F)F)cc1`: the activity change, negative = viability loss was 12.4% (inactive).
Same read-out and setting: the result for `C[C@@H]1CN([C@H](C)CO)C(=O)c2c(c3ccccc3n2C)-c2ccccc2CO[C@H]1CN(C)C(=O)Nc1ccc(F)cc1` reads -13% (inactive); that for `COc1cccc(S(=O)(=O)N(C)C[C@@H]2Oc3cc(C4=CCCCC4)ccc3S(=O)(=O)N([C@@H](C)CO)C[C@@H]2C)c1`, -1.39% (inactive).
On the same count and under the same terms, the result for `C[C@@H](NC(=O)C[C@H]1C=C[C@@H](NC(=O)Cc2ccccn2)[C@H](CO)O1)c1ccccc1` reads -2.87% (inactive); that for `COc1ccccc1C#Cc1ccc2c(c1)O[C@H](CN(C)Cc1cccnc1)[C@H](C)CN([C@H](C)CO)S2(=O)=O`, 4.43% (inactive); that for `Cc1noc(C)c1S(=O)(=O)Nc1ccc2c(c1)C(=O)N([C@H](C)CO)C[C@@H](C)[C@H](CN(C)Cc1ccc(C(F)(F)F)cc1)OCCCC[C@@H](C)O2`, -3.71% (inactive).
On to `CC(C)NC(=O)N1[C@H](CO)[C@H](c2ccc(C#CC3CCCCC3)cc2)[C@@H]1C#N`, for which the activity change, negative = viability loss was -6.23% (inactive).
With `CN(C)c1ccc2c(c1)[C@@H]1C[C@@H](CC(=O)NCc3ccc(Oc4ccccc4)cc3)O[C@H](CO)[C@@H]1O2`, the activity change, negative = viability loss was -4.49% (inactive).
The same measure, in the same setting: the result for `Cc1cc(C(=O)Nc2ccc3c(c2)C(=O)N(C)[C@H]2CC[C@H](CC(=O)NCc4ccc(-c5ccccc5)cc4)O[C@H]2CO3)no1` reads -11.4% (inactive); that for `C[C@@H](NC(=O)C[C@H]1C=C[C@H](NC(=O)Cc2ccccn2)[C@H](CO)O1)c1ccccc1`, -7.68% (inactive); that for `COc1ccc(S(=O)(=O)N(C)C[C@@H]2Oc3ncc(/C=C/c4ccccc4)cc3C(=O)N([C@@H](C)CO)C[C@H]2C)cc1`, 5.95% (inactive).
For the compound `C[C@H]1CN([C@@H](C)CO)C(=O)c2c(c3ccccc3n2C)-c2ccccc2CO[C@H]1CN(C)C(=O)Nc1ccc(F)cc1`, the activity change, negative = viability loss was -8.86% (inactive).
For `CC(C)(C)[S@@](=O)N1Cc2cc(C(=O)NCc3ccccn3)nc(-c3cccc(-c4ccccc4F)c3)c2[C@H]1CCO`, the activity change, negative = viability loss is 2.2% (inactive).
Still for that read-out and setting: as for `COc1cccc(S(=O)(=O)N(C)C[C@H]2Oc3cc(C4=CCCCC4)ccc3S(=O)(=O)N([C@@H](C)CO)C[C@@H]2C)c1`, the figure is 9.06% (inactive); as for `O=C(C[C@@H]1C[C@H]2c3cc(NC(=O)c4ccc5c(c4)OCO5)ccc3O[C@H]2[C@H](CO)O1)NC1CCCCC1`, 2.89% (inactive); as for `CC(C)NC(=O)N1Cc2cc(C(=O)NC3Cc4ccccc4C3)nc(-c3cccc(-c4cccnc4)c3)c2[C@H]1CCO`, 25.1% (inactive).
Regarding `COc1cccc(S(=O)(=O)N(C)C[C@@H]2Oc3cc(C4=CCCCC4)ccc3S(=O)(=O)N([C@H](C)CO)C[C@H]2C)c1`, the activity change, negative = viability loss is -0.785% (inactive).
Turning to `O=C(C[C@@H]1CC[C@H]2[C@@H](COC[C@H](O)CN2Cc2ccc(Oc3ccccc3)cc2)O1)N1CCc2ccccc2C1`, the activity change, negative = viability loss is -2.75% (inactive).
As to `O=C(C[C@H]1C[C@@H]2c3cc(NC(=O)c4ccc5c(c4)OCO5)ccc3O[C@@H]2[C@@H](CO)O1)NCc1ccc(Oc2ccccc2)cc1`, the activity change, negative = viability loss is -3.98% (inactive).
Consider `COc1ccccc1C#Cc1cnc2c(c1)C(=O)N([C@H](C)CO)C[C@H](C)[C@@H](CN(C)C(=O)c1ccc3c(c1)OCO3)O2`, for which the activity change, negative = viability loss is 7.12% (inactive).
Regarding `C[C@@H]1CN([C@H](C)CO)S(=O)(=O)c2ccc(C#C[C@@H](C)O)cc2O[C@H]1CN(C)Cc1ccc(-c2ccccc2)cc1`, the activity change, negative = viability loss was -18.7% (inactive).
For `COc1cccc(S(=O)(=O)N(C)C[C@H]2Oc3cc(C4=CCCCC4)ccc3S(=O)(=O)N([C@H](C)CO)C[C@H]2C)c1`, the activity change, negative = viability loss was -4.57% (inactive).
Turning to `C[C@H](NC(=O)C[C@H]1C=C[C@@H](NC(=O)Cc2ccccn2)[C@@H](CO)O1)c1ccccc1`, the activity change, negative = viability loss is -1.38% (inactive).
